Legend:
[1] = test system: Pietrain pig; assay: Campus Syndrome in the Pietrain pig (tremor); settings: in vivo
From the text: (§1) Typical genetic models in mutant animals are the Campus Syndrome in the Pietrain pig according to A. Richter et al. (Exp. Neurology, 1995; 134: 205-213) or the Weaver mutant mouse according to J. R. Simon and B. Ghetti (Mol. Neurobiol., 1994; 9: 183-189). In the Campus Syndrome model, these mutant pigs show a high-frequency tremor when standing and during locomotion, but not while lying at rest. Assessment of tremor is made by accelerometric recording. In the Weaver mutant mouse, degenerative cerebellar atrophy is […] in association with tremor, gait instability, and toppling over the sides after a few steps.

[2] = test system: patients with cervical dystonia (spasmodic torticollis); assay: double-blind study in cervical dystonia (TWSTRS); format: in vivo, human; settings: 2.5 mg to 20 mg b.i.d.
[3] = test system: cataleptic rat; assay: reversal of catalepsy in rats; format: in vivo; settings: Rattus norvegicus, sc, subcutaneous, read-out: ED50 (calculated dose to reverse catalepsy by 50%)
Experimental: R represents hydrogen or a hydroxyl protecting group, and their optical isomers and pharmaceutically acceptable salts, in particular 2-({[5-(4-fluorophenyl)-pyridin-3ylmethyl]-amino}-methyl)-chroman-4-ol or an optical isomer or a physiologically acceptable salt or solvate thereof, excert an extraordinary potency in reversing catalepsy. Extrapyramidal motor side effects in e.g. rodents are measured by the ability of a drug to induce catalepsy. Catalepsy is defined as a state where an animal continues to remain in an unnormal (nonphysiological ‘uncomfortable’) posture for a long time (e.g.: M. E. Stanley and S. D. Glick, Neuropharmacology, 1996; 15: 393-394; C. J. E. Niemegeers and P. Janssen, Life Sci., 1979, […]). For example, if a hindpaw of a rat is placed on an elevated level, e.g. a platform elevated 3 cm above ground level, a normal rat immediately withdraws the hindpaw from the platform to the ground level. A cataleptic rat remains in this unnatural posture even for minutes.

[4] = test system: patients with Huntington's disease; assay: trial in patients with Huntington's disease; format: in vivo, human; settings: add on, 2.5 to 20 mg b.i.d.
Experimental: A typical trial to establish the effect of the compounds according to the invention on chorea, voluntary motor performance, and functional disability in patients with Huntington's disease encompasses 32 genetically diagnosed patients. (2R,4R)-2-({[5-(4-fluorophenyl)-pyridin-3ylmethyl]-amino}-methyl)-chroman-4-ol monohydrochloride hemihydrate or placebo is administered as “add on” to the conventional treatment, which is maintained unchanged during the whole study. The dose of blinded medication is titrated over a period of 3 weeks in a range from 2.5 to 20 mg b.i.d. Then the medication is held constant for 1 week. Assessments are performed in the week before and at the last day of the trial. Chorea is scored using the abnormal involuntary movement scale (AIMS, W. Guy, in: ECDEU assessment manual. Rockville Md.: US dept. of health, education and welfare, 1976: 534-537), the unified Huntington's disease rating scale (UHDRS, Huntington study group, 1996, Movement Disord, 11: 13642), and judgement of video recordings. Voluntary motor performance is assessed using the UHDRS motor scale. Patients and their partners complete a questionnaire regarding functional disability.

[5] = test system: mutant dystonic hamster; assay: mutant dystonic hamster; format: in vivo; settings: scoring system
From the text: A typical animal model is the mutant dystonic hamster according to A. Richter and W. Löscher, Prog. Neurobiol. 1998; 54: 633-677. In this genetically dystonic hamsters, dystonic attacks are provoked by taking the animal from the home cage and placing it on a balance. The dystonic syndrome consists of a sequence of abnormal movements, and the severity of the single symptoms is rated by a scoring system.

[6] = test system: Parkinsonian cynomolgus monkey; assay: MPTP Parkinsonian cynomolgus monkey, l-dopa-induced adverse effects; format: in vivo; settings: MPTP monkeys chronically treated with l-dopa
Experimental: Treatment of adverse effects of conventional anti-Parkinsonian drugs as defined above are determined in a modification of the animal model of the Parkinsonian cynomolgus monkey according to P. J. Blanchet et al., Exp. Neurology 1998; 153: 214-222. Monkeys render parkinsonian by repeated injections of 1-methyl-4-phenyl-1,2,3,6-tetrahydropyridine (MPTP). The Parkinsonian monkeys are chronically treated with the standard 1-dopa therapy according to P. J. Blanchet et al., Mov. Disord., 1998; 13: 798-802. Longterm treatment with l-dopa induces extrapyramidal motor side effects and psychotic states which are both qualitatively and quantitatively, assessed by the Abnormal Involuntary Movement Scale (P. J. Blanchet et al., Mov. Disord. 1998; 13: 798-802) for different body parts (face, neck, trunk, each limb) and by rating for psychotic states by observing the monkey's attention, reactivity and mobility.

[7] = test system: rats; assay: systemic 3-nitropropionic acid (3-NP) model in rats; format: in vivo, rat
Experimental: A typical animal model is the systemic 3-nitropropionic acid (3-NP) model in rats according to C. V. Borlongan et al., Brain Res., 1995; 697: 254-257. Rats are treated with injections of the selective striatal neurotoxin 3-NP i.p. every fourth day (C. V. Borlongan et al., Brain Res. Protocols, 1997; 1: 253-257). After two injections of 3-NP, rats display nocturnal hyperactivity reflecting symptoms of early Huntington's disease, whereas rats treated with four injections of 3-NP display nocturnal akinesia (hypoactivity) reflecting symptoms of late Huntington's disease. Nocturnal activity is automatically measured in conventional acitivity cages by infrared beams. (2R,4R)-2-({[5-(4-fluorophenyl)-pyridin-3ylmethyl]-amino}-methyl)-chroman-4-ol or a pharmaceutical acceptable salt or solvate thereof reduce both the nocturnal hyperactivity and akinesia.

[8] = target: dopamine D4 receptors (Homo sapiens, UniProt P21917); assay: dopamine D4 receptor radioligand binding; settings: in vitro radioligand binding
From the text: (§2) The affinity to the 5-HT1A receptor can be determined in vitro by radioligand binding experiments according to Cossery J M et al. (Eur. J. Pharmacol. 1987; 140: 143-155). The functional agonistic properties at the 5HT1A receptor can be determined in vitro in the GTP-gamma-S test (Newman-Tancredi A et al., Eur. J. Pharmacol.1996; 307: 107-111). A standard in vivo animal model to test for the 5HT1A agonistic properties is the ultrasonic vocalization test in rats (e.g. deFry J et al., Eur. J. Pharmacol. 1993; 249: 331-339; Sanchez C, Behav. Pharmacol. 1993; 4: 269-277). The affinity for dopamine D4 receptors can be determined in vitro by radioligand binding experiments according to Klokow M et al. (Drug Res. 1986; 36: 197-200).

[9] = target: 5-HT1A receptor (UniProt P19327); assay: 5-HT1A receptor radioligand binding; settings: in vitro radioligand binding; read-out: IC50, binding to 5HT1A receptors
From the text: as §2

[10] = test system: Weaver mutant mouse; assay: Weaver mutant mouse (locomotor activity); settings: in vivo
From the text: as §1

dopamine D4 receptors, sequence (P21917 whole entry): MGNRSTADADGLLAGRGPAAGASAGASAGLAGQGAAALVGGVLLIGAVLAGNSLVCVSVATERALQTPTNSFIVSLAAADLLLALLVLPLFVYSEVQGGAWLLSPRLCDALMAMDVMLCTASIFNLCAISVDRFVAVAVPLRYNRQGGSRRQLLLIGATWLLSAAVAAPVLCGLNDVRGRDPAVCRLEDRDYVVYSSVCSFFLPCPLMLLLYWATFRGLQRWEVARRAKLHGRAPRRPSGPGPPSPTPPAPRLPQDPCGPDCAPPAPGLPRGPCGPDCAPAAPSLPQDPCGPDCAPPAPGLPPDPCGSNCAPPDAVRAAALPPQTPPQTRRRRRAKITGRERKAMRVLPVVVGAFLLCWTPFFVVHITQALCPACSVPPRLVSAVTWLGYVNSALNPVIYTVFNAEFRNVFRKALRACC

Q: Which results are given for `O[C@@H]1C[C@H](CNCc2cncc(-c3ccc(F)cc3)c2)Oc2ccccc21` [(2R,4R)-2-({[5-(4-fluorophenyl)-pyridin-3ylmethyl]-amino}-methyl)-chroman-4-ol]?
A: tremor when standing and during locomotion [1]: reduce disabling tremor when standing and during locomotion; TWSTRS scores [2]: significant improvement; ED50 [3]: ~2 mg/kg; voluntary and involuntary motor performance [4]: significant improvement of voluntary and involuntary motor performance; severity of dystonic symptoms [5]: dose-dependently reduce the severity of dystonic symptoms; choreiform and dystonic dyskinesias (Abnormal Involuntary Movement Scale) [6]: reduce overall choreiform dyskinesias and dystonic dyskinesias; psychotic states [6]: reduce; nocturnal akinesia ([7]; after four injections of 3-NP): reduce; nocturnal hyperactivity ([7]; after two injections of 3-NP): reduce; IC50 [8]: 12 nM; IC50 [9]: 10 nM; locomotor activity [10]: enhance locomotor activity

From patent publication US7618988B2, “Use of substituted aminomethyl chromans” (Merck Patentgesellschaft, priority 2001, dated 2009)
